According to ChEMBL document CHEMBL2169761, “Exploring the interactions of unsaturated glucuronides with influenza virus sialidase” (J Med Chem, 2012):

Assays:
[1] = Inhibition of Influenza A virus sialidase N2
[2] = Inhibition of Influenza A virus sialidase N2 by fluorometric assay

C/C=C\[C@@H]1C[C@H](C(=O)O)N[C@H]1[C@@H](NC(C)=O)[C@](C)(CCC)OC
Ki [1]: 0.2 nM

CCO[C@H]1C=C(C(=O)O)O[C@@H]([C@H](O)[C@H](O)CO)[C@@H]1NC(C)=O
IC50 [2]: 479000 nM

CCC(CC)O[C@@H]1OC(C(=O)O)=C[C@H](OC)[C@H]1NC(C)=O
IC50 [2]: 1450 nM

CCO[C@H]1C=C(C(=O)O)O[C@@H](OC(CC)CC)[C@@H]1NC(C)=O
IC50 [2]: 28000 nM

C=CCO[C@H]1C=C(C(=O)O)O[C@@H](OC(CC)CC)[C@@H]1NC(C)=O
IC50 [2]: 212000 nM

CCC(CC)O[C@@H]1OC(C(=O)O)=C[C@H](OC(C)=O)[C@H]1NC(C)=O
IC50 [2]: 5390 nM

CC(=O)N[C@H]1[C@H]([C@H](O)[C@H](O)CO)OC(C(=O)O)=C[C@@H]1NC(=N)N [ZANAMIVIR]
IC50 [1]: 5 nM
IC50 [2]: 12 nM

C=C[C@H]1CC(C(=O)O)=C[C@@H](OC(C)C)[C@@H]1NC(C)=O
Ki [1]: 45 nM

CCC(CC)O[C@@H]1C=C(C(=O)O)C[C@H](O)[C@H]1NC(C)=O
IC50 [1]: 15 nM

CCC(CC)O[C@@H]1OC(C(=O)O)=C[C@H](O)[C@H]1NC(C)=O
IC50 [2]: 320 nM

CC(=O)N[C@H]1[C@H]([C@H](O)[C@H](O)CO)OC(C(=O)O)=C[C@@H]1O [NEU5AC2EN]
IC50 [1]: 1700 nM
IC50 [2]: 10500 nM

CCC(CC)O[C@@H]1OC(C(=O)O)=C[C@H](N)[C@H]1NC(C)=O
IC50 [1]: 770 nM

CC(=O)N[C@H]1[C@H]([C@H](O)[C@H](O)CO)OC(C(=O)O)=C[C@@H]1N
IC50 [2]: 680 nM
